Experimental data published in patent publication US20050220996A1, “Process for coating a pharmaceutical particle” (priority 2002, published 2005).

Details: magnetic stirrer, Tween 80 as wetting agent (FIG. 11)
Source text: The dissolution behavior of NaCl in water was studied by measuring conductivity as a function of time while stirring at a constant rate using a magnetic stirrer. To ensure complete wetting, Tween 80 was used as a wetting agent.

## Sodium chloride [Uncoated]
  conductivity profile (dissolution in water): instantaneous conductivity profile
